Data reported in PubChem BioAssay (NCI).
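Method: 48-hour compound exposure of cells in 96-well plates, five concentrations, linear interpolation of endpoints. At the TGI there is no net growth.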

Tests used:
Assay in all cases: NCI-60 cell line screen, 48 h
OVCAR-4 ovarian = test system: OVCAR-4 ovarian
TK-10 renal = test system: TK-10 renal
OVCAR-8 ovarian = test system: OVCAR-8 ovarian
SF-295 CNS = test system: SF-295 CNS
SK-MEL-2 melanoma = test system: SK-MEL-2 melanoma
NCI/ADR-RES ovarian = test system: NCI/ADR-RES ovarian
NCI-H522 lung = test system: NCI-H522 lung
UO-31 renal = test system: UO-31 renal
ACHN renal = test system: ACHN renal
OVCAR-3 ovarian = test system: OVCAR-3 ovarian
SK-MEL-28 melanoma = test system: SK-MEL-28 melanoma
NCI-H460 lung = test system: NCI-H460 lung
A549 NSCLC = test system: A549 NSCLC
MALME-3M melanoma = test system: MALME-3M melanoma
M14 melanoma = test system: M14 melanoma
SNB-19 CNS = test system: SNB-19 CNS
PC-3 prostate = test system: PC-3 prostate
OVCAR-5 ovarian = test system: OVCAR-5 ovarian
RPMI-8226 leukemia = test system: RPMI-8226 leukemia

Row | Structure (SMILES) | TGI (OVCAR-4 ovarian) [µM] | TGI (TK-10 renal) [µM] | TGI (OVCAR-8 ovarian) [µM] | TGI (SF-295 CNS) [µM] | TGI (SK-MEL-2 melanoma) [µM] | TGI (NCI/ADR-RES ovarian) [µM] | TGI (NCI-H522 lung) [µM] | TGI (UO-31 renal) [µM] | TGI (ACHN renal) [µM] | TGI (OVCAR-3 ovarian) [µM] | TGI (SK-MEL-28 melanoma) [µM] | TGI (NCI-H460 lung) [µM] | TGI (A549 NSCLC) [µM] | TGI (MALME-3M melanoma) [µM] | TGI (M14 melanoma) [µM] | TGI (SNB-19 CNS) [µM] | TGI (PC-3 prostate) [µM] | TGI (OVCAR-5 ovarian) [µM] | TGI (RPMI-8226 leukemia) [µM]
1 | C=CCOC1=C(OCC=C)C(C2COC(C)(C)O2)OC1=O (stereo not drawn) | > 100 | > 100 | > 100 | > 100 | > 100 | > 100 | 45.2 | > 100 | > 100 | > 100 | > 100 | > 100 | > 100 | > 100 | > 100 | > 100 | > 100 | > 100 | > 100
2 | O=C(N/N=C/c1ccc([N+](=O)[O-])cc1)c1cccc2nc3ccccc3nc12 | > 100 | > 69.2 | > 100 | > 100 | > 100 | > 100 | > 100 | > 100 | > 73.8 | > 100 | > 100 | > 64.4 | > 100 | > 100 | > 100 | > 100 | > 100 | > 100 | > 100
3 | C=C1CCC2CC1[C@@H](C(=O)c1c[nH]c3ccccc13)NC2(C)C (stereo partly drawn) | > 37.5 | > 37.5 | > 37.5 | > 37.5 | > 37.5 | > 37.5 | > 37.5 | > 37.5 | > 37.5 | > 37.5 | > 37.5 | > 37.5 | > 37.5 | > 37.5 |  |  | > 37.5 | > 37.5 | > 37.5
4 | O=C1c2cc3c(cc2CC12Cc1cc4c(cc1C2=O)CCC4)CCC3 |  | > 100 | > 100 | > 100 | > 100 | > 100 | > 100 | > 100 | > 100 | > 100 | > 100 | > 100 | > 100 | > 100 | > 100 | > 100 | > 100 | > 100 | > 100
5 | COc1ccc(N=Nc2ccc3oc(=O)c(C(=O)Nc4ccccc4)cc3c2)cc1 | > 10 | > 10 | > 10 | > 10 | > 10 | > 10 | > 10 | > 10 | > 10 | > 10 | > 10 | > 10 | > 10 | > 10 | > 10 | > 10 | > 10 | > 10 | > 10
6 | C=C(C(=O)O)C1CCC(CC/C=C(\C)CC/C=C(\C)CCC=C(C)C)CO1 (stereo not drawn) | > 100 | 81.8 | 39.9 | 42.8 | 60.4 | 81.8 | 48.6 | 30 | > 100 |  | 29.5 |  | 32.4 | 63 | 25.5 | 29.1 | 79.1 | 35.7 | 
7 | COc1ccc(C2C3CCc4ccccc4C3=NN2S(=O)(=O)c2ccc(Cl)cc2)cc1 (stereo not drawn) | > 100 | > 100 | > 100 | 50.9 | > 100 | 21.9 | 37.6 | > 100 | 69.2 | > 100 |  | > 100 | > 100 | > 100 | > 100 | > 100 | > 100 | > 100 | 51.3
8 | COc1ccc(Cc2c(N)[nH]c(=O)n(C)c2=O)cc1 | > 100 | > 100 | > 100 | > 100 | > 100 | > 100 | > 100 | > 100 | > 100 | > 100 | > 100 | > 100 | > 100 | > 100 | > 100 | > 100 | > 100 | > 100 | > 100
9 | Cc1cnc(/N=c2\sc(C)cn2-c2ncc(C)s2)s1 | > 100 | > 100 | > 100 | > 100 |  | > 100 | > 100 | > 100 | > 100 | > 100 | > 100 | > 100 | > 100 | > 100 | > 100 | > 100 | > 100 | > 100 | > 100
10 | COc1cc(NCc2ccc3nc(-c4ccccc4)c(N)nc3c2)cc(OC)c1OC | > 100 | > 100 | 57.3 | 92.7 | > 100 | 57.8 | 62.3 | > 100 | > 100 | 82.7 | 69 | > 100 | 83.8 | 65.9 | 37.8 | > 100 | 93.6 | > 100 | 
11 | CC(=O)OC1COC(n2nc(/C=C/c3ccc(Cl)cc3)c(=O)n(/N=C/c3ccccc3)c2=S)C(OC(C)=O)C1OC(C)=O (stereo not drawn) | > 100 | > 100 | > 100 | > 100 | > 100 | > 100 | > 100 | > 100 | > 100 | > 100 | > 100 | > 100 | > 100 | > 100 | > 100 | > 100 | > 100 | > 100 | > 100
12 | CCOP(=O)(OCC)/C(C#N)=C/c1ccc(-c2ccc(F)cc2F)o1 | 33.4 | 25.5 | 33.2 | 30.8 | 44 | 58.9 | 37 | 26.3 | 26.6 | 30.1 | 28.1 | 44.2 | 30.2 | 33.4 | 31.7 | 33.3 | 24.2 | 31.7 | 51.9
13 | N#Cc1c(-c2ccc(Cl)cc2)c(C#N)c(=O)n(NS(=O)(=O)c2ccccc2)c1S | > 100 | 70.6 | 65 | > 100 | > 100 | 74.2 | 47.4 | 45.3 | 85.3 | > 100 |  | 46 | > 100 | > 100 | > 100 |  | > 100 | > 100 | 75.6
14 | O=c1[nH]/c(=C/c2ccc(OCc3ccccc3)cn2)c(=O)[nH]/c1=C/c1ccc(Cl)cc1 | > 100 | > 82.9 | > 100 | 29.4 | > 100 | > 100 | > 84.9 | > 100 | > 100 | 2.45 | > 100 | > 100 | > 100 | > 100 | > 100 | > 100 | > 100 | > 100 | > 100
15 | O=C(c1ccco1)n1c2ccc(Br)cc2c2nc3ccccc3nc21 | > 100 | > 100 | > 100 | > 100 | > 100 | > 100 | 41.5 | > 100 | > 100 | > 100 | > 100 | > 100 |  | > 100 | > 100 | > 100 | > 100 | > 100 | 54.6
16 | c1ccc(-c2ccc(-c3cc4ccccc4[nH]3)cc2)cc1 | > 100 | > 100 | > 100 | > 100 | > 100 | > 100 | > 100 | > 100 | > 100 | > 100 | > 100 | > 100 | > 100 | > 100 | > 100 | > 100 | > 100 | > 100 | > 100
17 | C(=C\c1nccs1)/c1cccc(/C=C/c2nccs2)n1 | > 50 | > 50 | > 50 | > 50 | > 50 | > 50 | > 50 | > 50 | > 50 | > 50 | > 50 | > 50 | > 50 | > 50 | > 50 | > 50 | > 50 | > 50 | > 50
18 | CCN(CC)c1ccc(C2SCC(=O)N2c2ccc(NC(=O)c3ccc(N4C(=O)CSC4c4ccc(N(CC)CC)cc4)cc3)cc2)cc1 (stereo not drawn) | > 100 | > 100 | > 100 | > 100 | > 100 | > 100 | > 100 | > 100 | > 100 | > 100 | > 100 | > 100 | > 100 | > 100 | > 100 | > 100 | > 100 | > 100 | 
19 | C=CCOc1ccc(/C(N=Nc2ccccc2)=N/NC(=O)c2ccccc2)cc1OC | > 100 | > 100 | > 100 | > 100 | > 100 | > 100 | > 100 | > 100 | > 100 | > 100 | > 100 | > 100 | > 100 | > 100 | > 100 | > 100 | > 100 | > 100 | 
20 | Cc1cc(C)nc(NC(=S)Nc2ccccc2Cl)c1 | > 100 | > 100 | > 100 | > 100 | > 100 | > 100 | > 100 | > 100 |  | > 100 | > 100 | > 100 | > 100 | > 100 | > 100 | > 100 | > 100 | > 100 | > 100
21 | N#CCC(=O)c1cc(OCc2cc(OCc3ccc(Br)cc3)cc(OCc3ccc(Br)cc3)c2)cc(OCc2cc(OCc3ccc(Br)cc3)cc(OCc3ccc(Br)cc3)c2)c1 | > 100 | > 100 |  | > 100 | > 100 | > 100 | > 100 | > 100 | > 100 | > 100 | > 100 | > 100 | > 100 | > 100 | > 100 | > 100 | > 100 | > 100 | > 100
22 | OCC1OC(NCCNCCNC2OC(CO)C(O)C(O)C2O)C(O)C(O)C1O (stereo not drawn) |  | > 100 | > 100 | > 100 | > 100 | > 100 | > 100 | > 100 | > 100 | > 100 | > 100 | > 100 | > 100 | > 100 | > 100 | > 100 | > 100 | > 100 | > 100
23 | CCO[C@@H]1CCC(S(=O)c2ccc(C)cc2)=CO1 (stereo partly drawn) | > 100 | > 100 | > 100 | > 100 | > 100 | > 100 | > 100 | > 100 | > 100 | > 100 | > 100 | > 100 |  | > 100 |  | > 100 | > 100 | > 100 | > 100
24 | c1ccc(-c2cs[s+]c2)cc1 | > 100 | > 100 | > 100 | > 100 |  | > 100 | > 100 | > 100 | > 100 | > 100 | > 100 | > 100 | > 100 | > 100 | > 100 | > 100 | > 100 | > 100 | 
25 | CC(=O)CCC(=O)C(=[N+]=[N-])S(=O)(=O)c1ccccc1 |  | > 100 | > 100 | > 100 | > 100 | > 100 | > 100 | > 100 | > 100 | > 100 | > 100 | > 100 | > 100 | > 100 | > 100 | > 100 | > 100 | > 100 | > 100
